Data on seven molecules can be found in patent US7632811B2, “Analogs of parathyroid hormone” (Societe de Conseils de Recherches et D'Applications …, priority 1995, dated 2009).

pKd: −log10 of the molar value. Non-standard residues stand in square brackets, D forms with d. Residues, ends and D or L forms follow the SMILES beside them. Cha = N[C@@H](CC1CCCCC1)C(=O)O; Ac6c = NC1(C(=O)O)CCCCC1; Nle = CCCC[C@H](N)C(=O)O; Dap = NC[C@H](N)C(=O)O; Aib = CC(C)(N)C(=O)O

For the first test, the target named is T1, PTH receptor present on SaOS-2 (human osteosarcoma cells) (Homo sapiens, UniProt Q03431).
T1 construct: host or cells: SaOS-2 human osteosarcoma cells (intact, confluent monolayers)
T1 sequence (Q03431 27-593): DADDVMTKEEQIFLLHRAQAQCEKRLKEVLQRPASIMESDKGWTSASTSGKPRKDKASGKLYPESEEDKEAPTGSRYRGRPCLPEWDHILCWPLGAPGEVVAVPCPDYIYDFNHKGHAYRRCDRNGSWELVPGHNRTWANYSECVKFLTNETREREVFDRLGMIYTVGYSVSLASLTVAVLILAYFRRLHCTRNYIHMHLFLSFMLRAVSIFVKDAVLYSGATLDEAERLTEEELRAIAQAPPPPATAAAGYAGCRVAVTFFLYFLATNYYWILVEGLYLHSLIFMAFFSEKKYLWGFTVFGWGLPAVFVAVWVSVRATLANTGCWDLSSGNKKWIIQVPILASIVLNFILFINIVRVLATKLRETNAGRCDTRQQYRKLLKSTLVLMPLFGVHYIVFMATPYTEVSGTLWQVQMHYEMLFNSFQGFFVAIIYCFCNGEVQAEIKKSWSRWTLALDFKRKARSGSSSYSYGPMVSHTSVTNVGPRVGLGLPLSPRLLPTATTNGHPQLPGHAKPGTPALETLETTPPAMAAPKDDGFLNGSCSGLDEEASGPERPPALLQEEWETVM
Kind of test: Binding to PTH receptor on SaOS-2 cells (competition with mono-125I-[Nle8,18,Tyr34(3-125I)]bPTH(1-34)NH2). As to conditions: Table I, 2 hrs at room temperature, read-out: Kd (half maximal inhibition of binding of mono-125I-[Nle8,18, Tyr34(3-125I)]bPTH(1-34)NH2). The essentials: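 Confluent SaOS-2 cells in 5% FBS RPMI were incubated 2 h at room temperature with 10×10^4 cpm mono-125I-[Nle8,18,Tyr34(3-125I)]bPTH(1-34)NH2 plus competing peptide at 10^−11 to 10^−4 M. After washing, cell-bound radioactivity was counted; Kd taken as half-maximal inhibition of tracer binding.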
A word on the pKd: it is −log10 of the Kd, conventionally taken in molar units. For `CCCC[C@H](NC(=O)[C@H](CO)NC(=O)[C@H](CC(N)=O)NC(=O)[C@H](CC(C)C)NC(=O)[C@H](Cc1c[nH]cn1)NC(=O)[C@H](CCCCN)NC(=O)CNC(=O)[C@H](CC(C)C)NC(=O)[C@H](CC(N)=O)NC(=O)[C@H](Cc1c[nH]cn1)NC(=O)[C@H](CCCC)NC(=O)[C@H](CC(C)C)NC(=O)[C@H](CCC(N)=O)NC(=O)[C@@H](NC(=O)[C@H](CCC(=O)O)NC(=O)[C@H](CO)NC(=O)[C@@H](NC(=O)[C@@H](N)CN)C(C)C)[C@@H](C)CC)C(=O)N[C@@H](CCC(=O)O)C(=O)N[C@@H](CCCNC(=N)N)C(=O)N[C@H](C(=O)N[C@@H](CCC(=O)O)C(=O)N[C@@H](Cc1c[nH]c2ccccc12)C(=O)N[C@@H](CC(C)C)C(=O)N[C@@H](CCCNC(=N)N)C(=O)N[C@@H](CCCCN)C(=O)N[C@@H](CCCCN)C(=O)N[C@@H](CC(C)C)C(=O)N[C@@H](CCC(N)=O)C(=O)N[C@@H](CC(=O)O)C(=O)N[C@H](C(=O)N[C@@H](Cc1c[nH]cn1)C(=O)N[C@@H](CC(N)=O)C(=O)N[C@@H](Cc1ccc(O)cc1)C(N)=O)C(C)C)C(C)C` [[Dap,Nle^8,18, Tyr^34]hPTH(1-34)NH2] (H-[Dap]VSEIQL[Nle]HNLGKHLNS[Nle]ERVEWLRKKLQDVHNY-NH2), the pKd was 6.82.
Regarding `CCCC[C@H](NC(=O)[C@H](CO)NC(=O)[C@H](CC(N)=O)NC(=O)[C@H](CC(C)C)NC(=O)[C@H](Cc1c[nH]cn1)NC(=O)[C@H](CCCCN)NC(=O)CNC(=O)[C@H](CC(C)C)NC(=O)[C@H](CC(N)=O)NC(=O)[C@H](Cc1c[nH]cn1)NC(=O)[C@H](CCCC)NC(=O)[C@H](CC(C)C)NC(=O)[C@H](CCC(N)=O)NC(=O)[C@@H](NC(=O)[C@H](CCC(=O)O)NC(=O)[C@H](CO)NC(=O)[C@@H](NC(=O)[C@@H](N)CO)C(C)C)[C@@H](C)CC)C(=O)N[C@@H](CCC(=O)O)C(=O)N[C@@H](CCCNC(=N)N)C(=O)N[C@H](C(=O)N[C@@H](CCC(=O)O)C(=O)N[C@@H](Cc1c[nH]c2ccccc12)C(=O)N[C@@H](CC(C)C)C(=O)N[C@@H](CCCNC(=N)N)C(=O)N[C@@H](CCCCN)C(=O)N[C@@H](CC1CCCCC1)C(=O)N[C@@H](CC(C)C)C(=O)N[C@@H](CCC(N)=O)C(=O)N[C@@H](CC(=O)O)C(=O)N[C@H](C(=O)N[C@@H](Cc1c[nH]cn1)C(=O)N[C@@H](CC(N)=O)C(=O)N[C@@H](Cc1ccccc1)C(N)=O)C(C)C)C(C)C` [[Nle^8,18, Cha^27]hPTH(1-34)NH2] (H-SVSEIQL[Nle]HNLGKHLNS[Nle]ERVEWLRK[Cha]LQDVHNF-NH2), the pKd is 7.30.

The same test, now with this note: Table II, 2 hrs at room temperature, read-out: Kd (half maximal inhibition of binding of mono-125I-[Nle8,18, Tyr34(3-125I)]bPTH(1-34)NH2).
Regarding `CC[C@H](C)[C@H](NC(=O)[C@H](CO)NC(=O)[C@H](CCCCN)NC(=O)CNC(=O)[C@H](CCCCN)NC(=O)[C@H](CC(=O)O)NC(=O)[C@H](Cc1c[nH]cn1)NC(=O)[C@H](CC(C)C)NC(=O)[C@H](CC(C)C)NC(=O)[C@H](CCC(N)=O)NC(=O)[C@H](Cc1c[nH]cn1)NC(=O)[C@H](CCC(=O)O)NC(=O)[C@H](CO)NC(=O)[C@@H](NC(=O)[C@H](C)N)C(C)C)C(=O)N[C@@H](CCC(N)=O)C(=O)N[C@@H](CC(=O)O)C(=O)N[C@@H](CC(C)C)C(=O)N[C@@H](CCCNC(=N)N)C(=O)N[C@@H](CCCNC(=N)N)C(=O)N[C@@H](CCCNC(=N)N)C(=O)N[C@@H](CCC(=O)O)C(=O)N[C@@H](CC(C)C)C(=O)N[C@@H](CC(C)C)C(=O)N[C@@H](CCC(=O)O)C(=O)N[C@@H](CCCCN)C(=O)N[C@@H](CC(C)C)C(=O)N[C@@H](CC(C)C)C(=O)N[C@@H](CCC(=O)O)C(=O)NC1(C(=O)N[C@@H](CC(C)C)C(=O)N[C@@H](Cc2c[nH]cn2)C(=O)N[C@H](C(=O)N[C@@H](C)C(N)=O)[C@@H](C)O)CCCCC1` [[Glu^22,25,29, Leu^23,28,31, Lys^26, Ahc^30]hPTHrP(1-34)NH2] (H-AVSEHQLLHDKGKSIQDLRRRELLEKLLE[Ac6c]LHTA-NH2; N-terminus assumed), the pKd is 6.64.
On to `CC[C@H](C)[C@H](NC(=O)[C@H](CO)NC(=O)[C@H](CCCCN)NC(=O)CNC(=O)[C@H](CCCCN)NC(=O)[C@H](CC(=O)O)NC(=O)[C@H](Cc1c[nH]cn1)NC(=O)[C@H](CC(C)C)NC(=O)[C@H](CC(C)C)NC(=O)[C@H](CCC(N)=O)NC(=O)[C@H](Cc1c[nH]cn1)NC(=O)[C@H](CCC(=O)O)NC(=O)[C@H](CO)NC(=O)[C@@H](NC(=O)[C@H](C)N)C(C)C)C(=O)N[C@@H](CCC(N)=O)C(=O)N[C@@H](CC(=O)O)C(=O)N[C@@H](CC(C)C)C(=O)N[C@@H](CCCNC(=N)N)C(=O)N[C@@H](CCCNC(=N)N)C(=O)N[C@@H](CCCNC(=N)N)C(=O)N[C@@H](CCC(=O)O)C(=O)NC1(C(=O)N[C@@H](CC(C)C)C(=O)N[C@@H](CCC(=O)O)C(=O)N[C@@H](CCCCN)C(=O)N[C@@H](CC(C)C)C(=O)N[C@@H](CC(C)C)C(=O)NC(C)(C)C(=O)N[C@@H](CCCCN)C(=O)N[C@@H](CC(C)C)C(=O)N[C@@H](Cc2c[nH]cn2)C(=O)N[C@H](C(=O)N[C@@H](C)C(N)=O)[C@@H](C)O)CCCCC1` [[Glu^22,25, Ahc^23, Lys^26,30, Leu^28,31, Aib^29]hPTHrP(1-34)NH2] (H-AVSEHQLLHDKGKSIQDLRRRE[Ac6c]LEKLL[Aib]KLHTA-NH2; N-terminus assumed), for which the pKd is 7.15.
Still for that read-out and setting: the result for `CC[C@H](C)[C@H](NC(=O)[C@H](CO)NC(=O)[C@H](CCCCN)NC(=O)CNC(=O)[C@H](CCCCN)NC(=O)[C@H](CC(=O)O)NC(=O)[C@H](Cc1c[nH]cn1)NC(=O)[C@H](CC(C)C)NC(=O)[C@H](CC(C)C)NC(=O)[C@H](CCC(N)=O)NC(=O)[C@H](Cc1c[nH]cn1)NC(=O)[C@H](CCC(=O)O)NC(=O)[C@H](CO)NC(=O)[C@@H](NC(=O)[C@H](C)N)C(C)C)C(=O)N[C@@H](CCC(N)=O)C(=O)N[C@@H](CC(=O)O)C(=O)N[C@@H](CC(C)C)C(=O)N[C@@H](CCCNC(=N)N)C(=O)N[C@@H](CCCNC(=N)N)C(=O)N[C@@H](CCCNC(=N)N)C(=O)N[C@@H](CCC(=O)O)C(=O)N[C@@H](CC(C)C)C(=O)NC1(C(=O)N[C@@H](CCC(=O)O)C(=O)N[C@@H](CCCCN)C(=O)N[C@@H](CC(C)C)C(=O)N[C@@H](CC(C)C)C(=O)NC(C)(C)C(=O)N[C@@H](CCCCN)C(=O)N[C@@H](CC(C)C)C(=O)N[C@@H](Cc2c[nH]cn2)C(=O)N[C@H](C(=O)N[C@@H](C)C(N)=O)[C@@H](C)O)CCCCC1` [[Glu^22,25, Leu^23,28,31, Ahc^24, Lys^26,30, Aib^29]hPTHrP(1-34)NH2] (H-AVSEHQLLHDKGKSIQDLRRREL[Ac6c]EKLL[Aib]KLHTA-NH2; N-terminus assumed) reads 8.22.
Regarding `CC[C@H](C)[C@H](NC(=O)[C@H](CO)NC(=O)[C@H](CCCCN)NC(=O)CNC(=O)[C@H](CCCCN)NC(=O)[C@H](CC(=O)O)NC(=O)[C@H](Cc1c[nH]cn1)NC(=O)[C@H](CC(C)C)NC(=O)[C@H](CC(C)C)NC(=O)[C@H](CCC(N)=O)NC(=O)[C@H](Cc1c[nH]cn1)NC(=O)[C@H](CCC(=O)O)NC(=O)[C@H](CO)NC(=O)[C@@H](NC(=O)[C@H](C)N)C(C)C)C(=O)N[C@@H](CCC(N)=O)C(=O)N[C@@H](CC(=O)O)C(=O)N[C@@H](CC(C)C)C(=O)N[C@@H](CCCNC(=N)N)C(=O)N[C@@H](CCCNC(=N)N)C(=O)N[C@@H](CCCNC(=N)N)C(=O)N[C@@H](CCC(=O)O)C(=O)N[C@@H](CC(C)C)C(=O)N[C@@H](CC(C)C)C(=O)N[C@@H](CCC(=O)O)C(=O)N[C@@H](CCCCN)C(=O)NC1(C(=O)N[C@@H](CC(C)C)C(=O)NC(C)(C)C(=O)N[C@@H](CCCCN)C(=O)N[C@@H](CC(C)C)C(=O)N[C@@H](Cc2c[nH]cn2)C(=O)N[C@H](C(=O)N[C@@H](C)C(N)=O)[C@@H](C)O)CCCCC1` [[Glu^22,25, Leu^23,28,31, Lys^26,30, Ahc^27, Aib^29]hPTHrP(1-34)NH2] (H-AVSEHQLLHDKGKSIQDLRRRELLEK[Ac6c]L[Aib]KLHTA-NH2; N-terminus assumed), the pKd was 6.64.
With `CC[C@H](C)[C@H](NC(=O)[C@H](CO)NC(=O)[C@H](CCCCN)NC(=O)CNC(=O)[C@H](CCCCN)NC(=O)[C@H](CC(=O)O)NC(=O)[C@H](Cc1c[nH]cn1)NC(=O)[C@H](CC(C)C)NC(=O)[C@H](CC(C)C)NC(=O)[C@H](CCC(N)=O)NC(=O)[C@H](Cc1c[nH]cn1)NC(=O)[C@H](CCC(=O)O)NC(=O)[C@H](CO)NC(=O)[C@@H](NC(=O)[C@H](C)N)C(C)C)C(=O)N[C@@H](CCC(N)=O)C(=O)N[C@@H](CC(=O)O)C(=O)N[C@@H](CC(C)C)C(=O)N[C@@H](CCCNC(=N)N)C(=O)N[C@@H](CCCNC(=N)N)C(=O)N[C@@H](CCCNC(=N)N)C(=O)N[C@@H](CCC(=O)O)C(=O)N[C@@H](CC(C)C)C(=O)N[C@@H](CC(C)C)C(=O)N[C@@H](CCC(=O)O)C(=O)N[C@@H](CCCCN)C(=O)N[C@@H](CC(C)C)C(=O)N[C@@H](CC(C)C)C(=O)NC(C)(C)C(=O)N[C@@H](CCCCN)C(=O)NC1(C(=O)N[C@@H](Cc2c[nH]cn2)C(=O)N[C@H](C(=O)N[C@@H](C)C(N)=O)[C@@H](C)O)CCCCC1` [[Glu^22,25, Leu^23,28, Lys^26,30, Aib^29, Ahc^31]hPTHrP(1-34)NH2] (H-AVSEHQLLHDKGKSIQDLRRRELLEKLL[Aib]K[Ac6c]HTA-NH2), the pKd was 6.70.
